This is an account of results in publication PMC8748916, “Microbial enzymes induce colitis by reactivating triclosan in the mouse gastrointestinal tract” (Nature Communications, 2022).

Common to all, as to assay: In vitro IC50 assay (TCS-G to TCS conversion, HPLC)
Assay type in all cases: biochemical

One assay relates to Clostridiales sp. GUS. The conditions noted are these: for Clostridiales sp. GUS % inhibition: Fig. 4c, triplicate. The procedure: (§1) Reaction mixtures containing 10 µL GUS (10 nM final), 10 µL TCS-G (200 µM final), 5 µL inhibitor (various concentrations), and 25 µL buffer (50 mM HEPES, 50 mM NaCl, various pH) or (50 mM sodium acetate, 50 mM NaCl, various pH) were incubated for 10 min and quenched with 50 µL 25% trichloroacetic acid. Samples were centrifuged 10 min at 16,000 × g, and the supernatant was analyzed using the method described for the catalytic efficiency assay. Inhibition was calculated by the equation below:1 %inhibition=100×(1−(AUCinh−AUCmax)/(AUCmin−AUCmax)) where AUCmin is the signal of the uninhibited reaction, AUCmax is the signal of the 100% inhibited reaction, and AUCinh is the signal of the reaction at a given concentration of inhibitor. Percent inhibition values were plotted against the log of inhibitor concentration, and GraphPad Prism 8.0 was used to determine IC50 values.

The next assay has as its target F. prausnitzii GUS (Faecalibacterium prausnitzii, UniProt C7H4D2). The method, then: as §1
A further assay has as its target T1, R. hominis 3 GUS (Roseburia hominis, UniProt A0A395V874).
T1 sequence (A0A395V874 1-734): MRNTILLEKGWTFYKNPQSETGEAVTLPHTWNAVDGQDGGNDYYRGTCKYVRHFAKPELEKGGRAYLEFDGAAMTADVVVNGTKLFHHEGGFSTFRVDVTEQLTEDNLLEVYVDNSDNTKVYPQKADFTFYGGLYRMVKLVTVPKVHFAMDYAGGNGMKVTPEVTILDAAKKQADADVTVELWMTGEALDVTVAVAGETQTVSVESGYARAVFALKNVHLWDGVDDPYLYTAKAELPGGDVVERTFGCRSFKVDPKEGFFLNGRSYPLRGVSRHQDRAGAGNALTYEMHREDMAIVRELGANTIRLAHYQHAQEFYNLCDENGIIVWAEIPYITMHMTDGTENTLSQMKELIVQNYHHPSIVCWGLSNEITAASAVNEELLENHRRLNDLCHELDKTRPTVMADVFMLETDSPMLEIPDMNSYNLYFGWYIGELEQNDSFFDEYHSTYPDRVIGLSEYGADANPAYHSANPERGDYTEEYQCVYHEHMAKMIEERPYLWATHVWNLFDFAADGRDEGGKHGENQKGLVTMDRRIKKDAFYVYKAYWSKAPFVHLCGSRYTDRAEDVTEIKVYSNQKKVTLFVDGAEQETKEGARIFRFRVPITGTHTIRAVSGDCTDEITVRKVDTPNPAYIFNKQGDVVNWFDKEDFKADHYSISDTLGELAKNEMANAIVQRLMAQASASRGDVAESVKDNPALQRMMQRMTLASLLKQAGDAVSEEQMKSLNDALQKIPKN
The procedure: as §1

[1] abbreviates: GUSi 3.7037 uM, Fig. 4b, triplicate.
Where [2] appears, read: GUSi 11.1111 uM, Fig. 4b, triplicate.
Setting [3] is: GUSi 33.3333 uM, Fig. 4b, triplicate.
Setting [4] is: GUSi 100 uM, Fig. 4b, triplicate.
Setting [5] is: GUSi 33.3333 uM, Fig. 4c, triplicate.

Several values for one entry are separate records, joined by “and”; a condition that tells them apart may be missing. Equal values may be shown once.

Chain of F. prausnitzii GUS (C7H4D2 entry or part of it): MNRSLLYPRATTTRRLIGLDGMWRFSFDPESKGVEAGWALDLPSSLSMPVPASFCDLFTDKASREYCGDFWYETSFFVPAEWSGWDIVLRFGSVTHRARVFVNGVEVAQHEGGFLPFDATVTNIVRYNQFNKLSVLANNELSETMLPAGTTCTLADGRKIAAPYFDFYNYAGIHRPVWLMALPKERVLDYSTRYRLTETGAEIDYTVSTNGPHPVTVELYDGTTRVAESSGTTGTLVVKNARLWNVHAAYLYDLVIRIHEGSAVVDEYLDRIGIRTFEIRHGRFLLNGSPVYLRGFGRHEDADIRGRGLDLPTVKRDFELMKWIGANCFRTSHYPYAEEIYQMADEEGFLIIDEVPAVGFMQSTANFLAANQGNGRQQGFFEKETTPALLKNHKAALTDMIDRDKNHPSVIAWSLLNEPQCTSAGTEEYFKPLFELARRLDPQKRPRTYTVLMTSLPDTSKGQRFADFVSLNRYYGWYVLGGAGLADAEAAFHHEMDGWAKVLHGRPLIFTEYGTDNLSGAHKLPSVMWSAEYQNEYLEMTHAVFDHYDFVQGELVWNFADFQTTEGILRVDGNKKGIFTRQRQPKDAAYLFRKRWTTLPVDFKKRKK

As a reminder, the IC50 is the midpoint of a concentration-inhibition curve. The low end stands for greater potency in that assay, the high end for weaker potency in that assay. A word on the inhibition: it is how much of the control response was suppressed. As for `C1CCc2c(c(N3CCOCC3)nc3sc4c(N5CCNCC5)nnnc4c23)C1` [GUSi, UNC10201652], the “Clostridiales sp. GUS % inhibition” value with Clostridiales sp. GUS (GUSi 11.1111 uM) was 28.4771% and 43.1829% and 36.9382%; in the assay with Clostridiales sp. GUS (GUSi 33.3333 uM), 61.452% and 67.3548% and 67.8202%; in the assay with Clostridiales sp. GUS (GUSi 100 uM), 79.8338% and 82.8373% and 85.2439%. The IC50 is 4 ± 1 µM in the assay with Clostridiales sp. GUS (conversion of TCS-G (200 µM) to TCS, FMN-binding GUS); 4.9 ± 0.8 µM at F. prausnitzii GUS (conversion of TCS-G (200 µM) to TCS, Loop 1 GUS); > 100 µM on R. hominis 3 GUS. Also, the “F. prausnitzii GUS % inhibition” value was -3.256% and -6.409% and 1.703% at F. prausnitzii GUS (GUSi 0.411523 uM, Fig. 4b, triplicate); 31.508% and 41.6292% at F. prausnitzii GUS (setting [1]); 65.4843% and 60.2667% at F. prausnitzii GUS (setting [2]); 79.5271% and 77.5064% on F. prausnitzii GUS (setting [3]); 90.4792% and 87.3233% on F. prausnitzii GUS (setting [4]). Moreover, at F. prausnitzii GUS (setting [1]), testing at 3.7037 µM gave an inhibition of 30.3%. Further, testing at 11.1111 µM against F. prausnitzii GUS (setting [2]) gave an inhibition of 68.7%. Moreover, the inhibition at 33.3333 µM on F. prausnitzii GUS (setting [3]) turned out to be 74.1%; against R. hominis 3 GUS (setting [5]) it was 23.2%. Besides, the inhibition at 100 µM against F. prausnitzii GUS (setting [4]) worked out at 85.7%. Besides, the “R. hominis 3 GUS % inhibition” value at R. hominis 3 GUS (GUSi 3.7037 uM, Fig. 4c, triplicate) was 2.389% and -2.0752% and 4.091%; on R. hominis 3 GUS (setting [5]) it was 18.9209% and 35.4136%; at R. hominis 3 GUS (GUSi 100 uM, Fig. 4c, triplicate) it was 34.5947% and 39.5508% and 57.3604%.
